{"source": "paper PMC10391911", "about": "“Differential effects of two phosphodiesterase 4 inhibitors against lipopolysaccharide-induced neuroinflammation in mice” (BMC Neuroscience, 2023)", "key": {"[1]": {"tested_on": "TNF-α, IL-1β, and IL-6 levels and apoptotic neurons in the brain", "conditions": "3 mg/kg subcutaneous, following subarachnoid hemorrhage; cited from earlier work"}, "[2]": {"tested_on": "NO production in LPS-induced BV-2 cells", "assay": "NO production in LPS-induced BV-2 cells (Griess test)", "type": "cell-based, murine", "conditions": "1 h pretreatment, LPS 1 µg/mL 24 h; for Effect on NO levels: up to 10 µM", "description": "BV-2 cells were seeded at a density of 5 × 10^5 cells/mL in 96-well plates. […] Finally, 1 µg/mL LPS was added to the cell culture medium for 24 h to induce inflammation."}, "memory": {"tested_on": "memory", "conditions": "rodents; cited from earlier work"}, "[3]": {"tested_on": "TNF-α, IL-1β, and IL-6 levels in plasma and brain", "assay": "In vivo LPS-induced neuroinflammation mouse model, cytokine ELISA", "conditions": "10 mg/kg orally once daily for 4 days, LPS 10 mg/kg i.p., samples 8 h after LPS"}, "PDE4B": {"tested_on": "PDE4B", "conditions": "quoted in discussion without reference, cf. b4; read-out: PDE4B inhibitory concentration; cited from earlier work"}, "[4]": {"conditions": "mice and rats; cited from earlier work"}, "PDE4Cs": {"tested_on": "PDE4Cs", "conditions": "against PDE4Cs; cited from earlier work"}, "APP/PS1 mouse model": {"tested_on": "APP/PS1 mouse model", "conditions": "0.1, 0.2, and 0.4 mg/kg intragastrically for 3 weeks, APP/PS1 mice; cited from earlier work"}, "[5]": {"tested_on": "PDE4As, PDE4Bs and PDE4Ds", "conditions": "against PDE4As; cited from earlier work"}, "PDE4D7": {"tested_on": "PDE4D7", "design": "method as in PMID 33363155", "conditions": "against PDE4D7; cited from earlier work"}, "BV-2 cells": {"tested_on": "BV-2 cells", "type": "cell-based, murine", "conditions": "24 h exposure, tested up to 100 µM", "description": "Cell viability was assessed using the WST-8 assay with Cyto X reagent (LPS Solution, Daejeon, Korea). BV-2 microglial cells were seeded at a density of 5 × 10^5 cells/mL in 96-well plates. […] Finally, Cyto X solution was loaded in each well and incubated for 20 min."}, "brain cAMP levels": {"tested_on": "brain cAMP levels", "design": "method as in PMID 28772081, PMID 33363155", "conditions": "cited from earlier work"}, "PDE4D3": {"tested_on": "PDE4D3", "design": "method as in PMID 33363155", "conditions": "against PDE4D3; cited from earlier work"}}}
{"smiles": "O=C(Nc1c(Cl)cncc1Cl)c1ccc(OC(F)F)c(OCC2CC2)c1", "note": "[roflumilast]", "values": [{"measurement": "TNF-α, IL-1β, and IL-6 levels and number of apoptotic neurons in the brain", "setting": "[1]", "value": "decreased"}, {"measurement": "Effect on NO levels", "setting": "[2]", "value": "dose-dependent decrease"}, {"measurement": "IC50", "setting": "[2]; Mus musculus, BV-2, read-out: IC50 against NO", "value": 312, "unit": "nM"}, {"measurement": "Effect on memory in object-location task and spatial Y-maze", "setting": "memory", "value": "enhanced memory"}, {"measurement": "Effect on TNF-α, IL-1β, and IL-6 levels in plasma and brain", "setting": "[3]", "value": "reduced"}, {"measurement": "IC50", "setting": "PDE4B", "value": "[…]"}, {"measurement": "Calculated oral emetic dosages", "setting": "[4]", "value": "9 to 30", "unit": "mg/kg"}, {"measurement": "IC50", "setting": "PDE4Cs", "value": "3 to 4.3", "unit": "nM"}, {"measurement": "Performance in Morris water maze, novel object recognition, and passive avoidance tasks", "setting": "APP/PS1 mouse model", "value": "restored performance"}, {"measurement": "IC50", "setting": "[5]", "value": "0.2 to 0.9", "unit": "nM"}]}
{"smiles": "O=C(O)Cc1ccc(Cc2cc(-c3cccc(Cl)c3)nc(C(F)(F)F)c2)cc1", "note": "[zatolmilast]", "values": [{"measurement": "IC50", "setting": "PDE4D7", "value": "[…]"}, {"measurement": "Effect on NO levels", "setting": "[2]", "value": "did not have this effect"}, {"measurement": "Effect on TNF-α, IL-1β, and IL-6 levels in plasma and brain", "setting": "[3]", "value": "did not reduce"}, {"measurement": "Nontoxic concentrations", "setting": "BV-2 cells", "value": "[…]"}, {"measurement": "Effect on brain cAMP levels", "setting": "brain cAMP levels", "value": "increases brain cAMP levels"}, {"measurement": "IC50", "setting": "PDE4D3", "value": 7.4, "unit": "nM"}]}
